In patent US6723897B2, “Methods for controlling gibberellin levels” (Monsanto Technology, LLC, priority 1998, dated 2004):

Columns and labels:
[1] = test system: GA-deficient transgenic soybean line 719 (R5); assay: Hilum treatment of soybean seeds, seedling growth and development, GA-deficient soybean; type: in vivo, Glycine max; set-up: key to Emergence timing / Hypocotyl length (6 DAP) / 1st internode length (12 DAP) / 3rd internode length (20 DAP) / 2nd internode length (12 DAP): pos: emergence faster/stem segment longer than controls; 0: emergence timing/stem segment length similar to controls; neg: emergence slower/stem segment shorter than controls; settings: for Lowest rate where biological activity is observed, 1st internode length (10 DAP) / Lowest rate where biological activity is observed, emergence timing / Lowest rate where biological activity is observed, hypocotyl length (5 DAP) / 1st internode length (12 DAP) / Emergence timing / Hypocotyl length (6 DAP): L719, hilum treatment; for Lowest rate where biological activity is observed, 1st internode length (10 DAP) / Lowest rate where biological activity is observed, emergence timing / Lowest rate where biological activity is observed, hypocotyl length (5 DAP): rate response; for 1st internode length (12 DAP) / Emergence timing / Hypocotyl length (6 DAP): single rate per compound 8.3-16.5 μg/seed; for activity on line 719 in terms of emergence timing and hypocotyl length: single rate, concentration that does not affect normal plant tissue
Method: (§1) In the previous experiments, the effect of various GA compounds on transgenic, GA-deficient and wild-type soybean is evaluated by treating seeds with these compounds via imbibition. Several of these compounds are not completely soluble in water, which limited the interpretation of their utility in rescuing GA-deficient dwarf plants. The purpose of this experiment is to reevaluate selected, previously tested compounds, and additional compounds, by introducing them to the seed via the hilum. As shown by the results presented below, direct application of small quantities of GA compounds dissolved in an organic solvent to the hilum is an effective method of treating soybean seeds. As in the previously described experiments, comparison is made between activity on GA-deficient soybean seedlings and normal (wild-type) seedlings. […] soybean seeds are supplied by Asgrow Seed Company (Des Moines, Iowa). Seed of GA-deficient transgenic soybean line 719 is created by transformation of […] soybean with pMON29801 (FMV/antisense CPScc). Fifth generation seed (R5) is used for these experiments. […] When multiple droplets are applied, each 1 μl droplet is allowed to dry before subsequent droplets are added. Ethanol minus compound is used a treatment control. […] (29° C.) and 75° F. (24° C.), respectively. Emergence timing is measured by counting the number of emerged seedlings at different times after planting. Emergence is defined as the presence of cotyledons raised to soil level or above. […] To assess the ability of a seed treatment to deliver biological activity beyond the first internode, measurements are taken on selected treatments after prolonged growth and development.

wild-type A3237 soybean = assay: Hilum treatment of soybean seeds, seedling growth and development, wild-type soybean; type: in vivo, Glycine max; set-up: key to Emergence timing / Hypocotyl length (6 DAP) / 1st internode length (12 DAP) / 3rd internode length (20 DAP): pos: emergence faster/stem segment longer than controls; 0: emergence timing/stem segment length similar to controls; neg: emergence slower/stem segment shorter than controls; settings: for Lowest rate where biological activity is observed, 1st internode length (10 DAP) / Lowest rate where biological activity is observed, emergence timing / Lowest rate where biological activity is observed, hypocotyl length (5 DAP): rate response; for 1st internode length (12 DAP) / Emergence timing / Hypocotyl length (6 DAP): single rate per compound 8.3-16.5 μg/seed
Method: as §1

[2] = test system: constitutively GA-deficient transgenic dwarf soybean line 719; assay: Experiment I greenhouse test, seed imbibition, GA-deficient soybean; type: in vivo, Glycine max; set-up: Observation on Transgenic Line 719: key: −1: treated plants are shorter as compared to untreated plants; 0: treated plants had the same stature as untreated plants; 1: treated plants are slightly elongated as compared to untreated plants; 2: treated plants are moderately elongated as compared to untreated plants; 3: treated plants are highly elongated as compared to untreated plants; 4: treated plants are extremely elongated as compared to untreated plants; settings: 0.25 mg/ml; for effect in both the constitutive transgenic dwarf and wild-type soybean lines: imbibition, lines 719 and A3237; for Observation on Transgenic Line 719: seeds imbibed 5 hours
Text: Seeds are covered with 0.5″ of vermiculite.

[3] = Particulate material present in solutions after mixing; type: physicochemical
Method: Each of the compounds noted above is weighed to the nearest 0.1 mg in a pre-tarred 1.5-ml polypropylene vial with a screw-top lid. Absolute ethanol is added to the weighed powder to prepare a 25 mg/ml solution. Solutions are thoroughly mixed using a vortex mixer. A stainless steel spatula is used to crush any particulate material remaining after extensive mixing. Vials are left overnight at room temperature, and then remixed to form the concentrated ethanol stock solutions. The presence of undissolved material is noted throughout this procedure.

[4] = test system: constitutively GA-deficient transgenic dwarf soybeans (line 719); assay: Summary of first two greenhouse experiments, rescue of GA-deficient soybeans; type: in vivo, Glycine max; set-up: key: +: transgenic soybeans are rescued; 0: transgenic soybeans are not rescued
Method: (§2) Compounds are first prepared as 25 mg/ml solutions in ethanol as described above, and then diluted into 40 ml of water to prepare the final 0.25 mg/ml treatment solutions. Visual observations on solubilities (milky, clear, etc.) of the treatment solutions are noted. The treatment solutions are divided into two 20 ml portions, each in 50 ml plastic centrifuge tubes. In addition to treating seeds with solutions containing the test compounds, untreated seeds and seeds imbibed in ethanol-water solution (300 μl ethanol in 30 mls of water) are also included in this experiment as controls. In the latter case, 20 seeds are imbibed in 30 mls of solution for six hours.
(§3) Two soybean varieties are selected for testing: constitutively GA-deficient transgenic dwarf soybean line 719 (plasmid pMON29801, constitutive FMV promoter/asCPScc; which is a mixture of 719−2 and 719+17), and A3237, the wild-type parent material. […] After imbibition, seeds are removed from the test tubes, placed on wax paper to dry, and planted in bread pans containing farm soil amended with fertilizer at 20 seeds/pan. Seeds are covered with 0.5″ of vermiculite. Pans are transferred to the greenhouse, which had day/night temperatures of 86/68° F. (30/20° C.), and subirrigated. Illumination is at a light intensity of 300-400 μmolm^−2s^−1 photosynthetic photon flux; 16 hours light/8 hours dark. Subsequent waterings are also through sub-irrigation until the test is terminated three weeks later. Observations included the number of dwarf, intermediate, and tall plants; plant height; uniformity of rescue; and any visual effects.
(§4) All compounds are tested at final concentrations of 0.25, 0.025, and 0.0025 mg/ml except for GA9, which is tested at 0.125, 0.0125, and 0.00125 mg/ml. (The compounds are tested in Experiment I at only one concentration, i.e., 0.25 mg/ml). Test tubes contained […] of ethanol solution per tube. Final volumes are made up to 30 ml with deionized water. After shaking, the treatment solutions (15 ml each) are transferred to each of two 50 ml test tubes. Treatments 1 to 27 are performed on wild-type line A3237; treatments 28 to 54 are performed on constitutively GA-deficient transgenic dwarf soybean line 719 (a mixture of 719−2 and 719+17). Twenty seeds are used in each treatment. Dry seed, ethanol/water-imbibed seed (1% ethanol in water, v/v), and water-imbibed seeds are included as controls. Seeds are imbibed for 6 hours in the test solutions, then planted in bread pans containing Metromix 350 (The Scotts Company, Marysville, Ohio), and covered with 0.5″ Metro-mix. Covered pans are transferred to the greenhouse and subirrigated. Illumination is at a light intensity of 300-400 μmolm^−2s^−1 photosynthetic photon flux; 16 hours light/8 hours dark. Subsequent waterings are also through sub-irrigation until the test is terminated three weeks later. Observations included the number of dwarf, intermediate, and tall plants; plant height; uniformity of rescue; and any visual effects. Digital photographs are also taken.

[5] = test system: wild-type soybean line A3237; assay: Experiment I greenhouse test, seed imbibition, wild-type soybean; settings: 0.25 mg/ml; seeds imbibed 5 hours
Method: as §2, with “In the latter case, 20 seeds are imbibed in 30 mls of solution for six hours.” left out
After imbibition, seeds are removed from the test tubes, placed on wax paper to dry, and planted in bread pans containing farm soil amended with fertilizer at 20 seeds/pan. Seeds are covered with 0.5″ of vermiculite. Pans are transferred to the greenhouse, which had day/night temperatures of 86/68° F. (30/20° C.), and subirrigated. Illumination is at a light intensity of 300-400 μmolm^−2s^−1 photosynthetic photon flux; 16 hours light/8 hours dark. Subsequent waterings are also through sub-irrigation until the test is terminated three weeks later. Observations included the number of dwarf, intermediate, and tall plants; plant height; uniformity of rescue; and any visual effects.

[6] = test system: constitutively GA-deficient transgenic dwarf soybean line 719; assay: Experiment II second greenhouse test, seed imbibition, GA-deficient soybean; type: in vivo, Glycine max; settings: seeds imbibed 6 hours
Method: as §4, with “(The” for “All compounds are tested at final concentrations of 0.25, 0.025, and 0.0025 mg/ml except for GA9, which is tested at 0.125, 0.0125, and 0.00125 mg/ml. (The”, “Treatments 1 to 27 are performed on wild-type line A3237; treatments 28 to 54 are performed on constitutively GA-deficient transgenic dwarf soybean line 719 (a mixture of 719−2 and 719+17).” left out

[7] = test system: wild-type soybeans (line A3237); assay: Summary of first two greenhouse experiments, elongation of wild-type soybeans
Method: as §2, §3, §4

[8] = 0.25 mg/ml solution (ethanol-water)
[9] = 0.0025 mg/ml solution (ethanol-water)
[10] = 0.025 mg/ml solution (ethanol-water)

## C=C1C[C@]23C[C@@]1(O)CC[C@H]2[C@]1(C)CCC[C@@](C)(C(=O)O)[C@H]1[C@@H]3C(=O)O [GA53]
[1]
  Lowest rate where biological activity is observed, 1st internode length (10 DAP): >10 μg/seed
  Lowest rate where biological activity is observed, emergence timing: 1 μg/seed
  Lowest rate where biological activity is observed, hypocotyl length (5 DAP): 1 μg/seed
  1st internode length (12 DAP): 0
  Emergence timing: pos
  Hypocotyl length (6 DAP): pos
[1]; hilum
  activity on line 719 in terms of emergence timing and hypocotyl length: biologically active
wild-type A3237 soybean
  Lowest rate where biological activity is observed, 1st internode length (10 DAP): >10 μg/seed
  Lowest rate where biological activity is observed, emergence timing: >10 μg/seed
  Lowest rate where biological activity is observed, hypocotyl length (5 DAP): >10 μg/seed
  1st internode length (12 DAP): neg
  Emergence timing: 0
  Hypocotyl length (6 DAP): 0

## C=C1C[C@]23C[C@H]1CC[C@H]2[C@@]12CC[C@H](O)[C@@](C)(C(=O)O1)[C@H]2[C@@H]3C(=O)OC [GA4 methyl ester]
[2]
  effect in both the constitutive transgenic dwarf and wild-type soybean lines: slight to medium elongation
  Observation on Transgenic Line 719: 1
[3]; 0.25 mg/ml treatment solutions
  solubility in water during imbibition: less soluble in water during imbibition
[4]; [8]
  Rescue of GA-deficient soybeans: 0
[5]
  Observation on Wild-Type Line A3237: 1

## C=C1C[C@]23C[C@@]1(O)CC[C@H]2[C@@]12CC[C@H](O)[C@@](C)(C(=O)O1)[C@H]2[C@@H]3C(=O)O [GA1]
[2]
  effect in both the constitutive transgenic dwarf and wild-type soybean lines: excessive elongation
  Observation on Transgenic Line 719: 4
[6]; 0.0025 mg/ml
  Significant Visual Observations on Line 719: Good rescue of dwarfs
[6]; 0.025 mg/ml
  Significant Visual Observations on Line 719: Good rescue of dwarfs
[4]; [9]
  Rescue of GA-deficient soybeans: +
[4]; [10]
  Rescue of GA-deficient soybeans: +
[4]; [8]
  Rescue of GA-deficient soybeans: +
[7]; [9]
  Elongation of wild-type soybeans: −
[7]; [10]
  Elongation of wild-type soybeans: +
[7]; [8]
  Elongation of wild-type soybeans: +
[5]
  Observation on Wild-Type Line A3237: 4

## C=C1C[C@]23C[C@H]1CC[C@H]2[C@@]12CC[C@H](O)[C@@](C)(C(=O)O1)[C@H]2[C@@H]3C(=O)O [GA4]
[2]
  effect in both the constitutive transgenic dwarf and wild-type soybean lines: slight to medium elongation
  Observation on Transgenic Line 719: 2
[4]; [8]
  Rescue of GA-deficient soybeans: +
[7]; [8]
  Elongation of wild-type soybeans: +
[5]
  Observation on Wild-Type Line A3237: 2

## C=C1C[C@@]23CC[C@@H]4[C@](C)(CO)CCC[C@@]4(C)[C@@H]2CC[C@@H]1C3 [kaurenol]
[1]
  Lowest rate where biological activity is observed, 1st internode length (10 DAP): >100 μg/seed
  Lowest rate where biological activity is observed, emergence timing: >100 μg/seed
  Lowest rate where biological activity is observed, hypocotyl length (5 DAP): >100 μg/seed
  1st internode length (12 DAP): 0
  Emergence timing: pos
  Hypocotyl length (6 DAP): pos
[1]; rate up to 100 ng/seed, hilum
  confirmation of activity previously observed: not confirmed
[1]; hilum
  activity on line 719 in terms of emergence timing and hypocotyl length: biologically active
wild-type A3237 soybean
  Lowest rate where biological activity is observed, 1st internode length (10 DAP): >100 μg/seed
  Lowest rate where biological activity is observed, emergence timing: >100 μg/seed
  Lowest rate where biological activity is observed, hypocotyl length (5 DAP): >100 μg/seed
  1st internode length (12 DAP): 0
  Emergence timing: 0
  Hypocotyl length (6 DAP): 0

## C=C1C[C@]23C[C@H]1CC[C@H]2[C@@]12C=C[C@H](O)[C@@](C)(C(=O)O1)[C@H]2[C@@H]3C(=O)OC [GA7 methyl ester]
[2]
  effect in both the constitutive transgenic dwarf and wild-type soybean lines: slight to medium elongation
  Observation on Transgenic Line 719: 2
[3]; 0.25 mg/ml compound in water
  Particulate material present, 100X Diln w/water: YES
[4]; [8]
  Rescue of GA-deficient soybeans: 0
[5]
  Observation on Wild-Type Line A3237: 1

## C=C1C[C@]23C[C@@]1(O)CC[C@H]2[C@@]12CCC[C@@](C)(C(=O)O1)[C@H]2[C@@H]3C(=O)O [GA20]
[2]
  effect in both the constitutive transgenic dwarf and wild-type soybean lines: excessive elongation
  Observation on Transgenic Line 719: 4
[6]; 0.0025 mg/ml
  Significant Visual Observations on Line 719: Good rescue of dwarfs
[6]; 0.025 mg/ml
  Significant Visual Observations on Line 719: Good rescue of dwarfs
[6]; 0.25 mg/ml
  Significant Visual Observations on Line 719: Excessive elongation
[4]; [9]
  Rescue of GA-deficient soybeans: +
[4]; [10]
  Rescue of GA-deficient soybeans: +
[4]; [8]
  Rescue of GA-deficient soybeans: +
[7]; [9]
  Elongation of wild-type soybeans: +
[7]; [10]
  Elongation of wild-type soybeans: +
[7]; [8]
  Elongation of wild-type soybeans: +
[5]
  Observation on Wild-Type Line A3237: 4
